Test results as given in US7943795B2, “Vitamin D receptor modulators” (Eli Lilly and Company, priority 2004, dated 2011).

How the values were obtained:
[1] = system: KERtr cells (Human skin keratinocyte); experiment: Keratinocyte proliferation assay; format: cell-based; conditions: 72 hr, BrdU incorporation, read-out: Keranocyte Proliferation IC50
Description: 6. The keratinocyte proliferation assay is described in the “Assay” section of the Description, infra.
The Keratinocyte Proliferation Assay
This Assay is indicative for the treatment of psoriasis. An acceptable test result is IC50 value of less than or equal to 300 nM. Preferred assay results are IC50 values of less than 100 nM.
KERtr cells (Human skin keratinocyte are transformed with a retrovirus vector, obtained from ATCC, then are plated in 96-well flat-bottomed plates (3000 cells/well) in 100 μl keratinocyte serum free medium supplemented with bovine pituitary extract in the absence of EGF (Life Technologies, Rockville, Md.) and are incubated at 37° C. for two days. The cells are treated with various concentrations of VDR ligands (ten-fold serial dilution from 10,000 nM to 0.1 nM in triplicate), dissolved in 100 μl keratinocyte serum free medium supplemented with bovine pituitary extract in the absence of EGF and are incubated at 37° C. for 72 hr. BrdU (5-bromo-2′-deoxyuridine) incorporation is analyzed as a measure of DNA replication (Cell proliferation ELISA kit, Roche Diagnostics, Indianapolis, Ind.) and absorbance is measured at […]. Potency values (IC50) values were determined as the concentration (nM) of compound that elicited a half-maximal response.

[2] = system: IL-10 production in PBMCs; experiment: IL-10 induction assay; format: cell-based; conditions: PBMC; TPA/PHA stimulated human PBMCs, IL-10 in supernatant by immunoassay
Text: 7. The IL-10 induction assay is described in the “Assay” section of the Description, infra.
The IL-10 Induction Assay
This is an in vitro efficacy assay for psoriasis, abscess and adhesion. Psoriasis involves both keratinocytes and immune cells. IL-10 is a unique cytokine because it is anti-inflammatory and immunosuppressive. This assay tells us whether a VDRM is able to function as an agonist in PBMCs (primary blood mononuclear cells) or not. A lower EC50 value is desirable in this assay since a compound with a lower EC50 value will be a better agonist in PBMCs. An acceptable test result is an EC50 value of less than 200 nM. Preferred assay results are EC50 values of less than 100 nM.
Isolation of Peripheral Blood Mononuclear Cells (PBMCs):
Collect 50 ml of human blood and dilute with media, RPMI-1640. Add diluted blood to sterile tubes with ficol. Centrifuge the tubes. Discard the top layer and collect the cells from middle layer. Divide all cells into four tubes and add media. Centrifuge. Aspirate off media and resuspend the cells. Collect all cells. Centrifuge at 1200 rpm for 10 m. Resuspend the cells in RPMI-1640 with 2% FBS and then count cells.
Stimulation of PBMC: Prepare TPA in DMSO. Dissolve PHA in water. Plate TPA/PHA treated PBMCs in well plates. Incubate the cells.
Treatment: Prepare all compound dilutions in plain RPMI-1640 media. Add diluted compound and incubate. Sample Collection and assay: Remove all the cells by centrifugation and assay the supernatant for IL-10 by immunoassay using anti-human IL-10 antibody coated beads, as described by the manufacturer (Linco Research Inc., St. Charles, Mo.).

CCC(CC)(c1ccc(OCC(O)C(C)(C)C)c(C)c1)c1ccc2cc(C(=O)O)ccc2c1 (racemic) [Ex. 2, 6-{1-Ethyl-1-[4-(2-hydroxy-3,3-dimethyl-butoxy)-3-methyl-phenyl]-propyl}-naphthalene-2-carboxylic acid]
IC50 [1]: 47 nM | IC50 [2]: 49 nM
